The text below walks through data of patent publication US6407064B2, “Aminoalcohol derivative and medicament comprising the same” (Seikagaku Corporation, priority 1999, dated 2002).

The test system of data set [1] is cultured neurocytes of rat fetal cerebral cortex. Put plainly: Activity of accelerating synapse formation (intracellular calcium ion level, fura-2). To be noted: relative value, L-PDMP regarded as 100; compound 20 μM; assay on 10th day of culture. Type of data set: cell-based. How it is done: The activity of accelerating synapse formation was determined by measuring change of an intracellular calcium ion level resulted from the synchronized spontaneous ignition of neurocytes which is considered to show synapse activities by means of an intracellular calcium ion multipoint observation system using a calcium ion fluorescence indicator, fura-2.
Concretely, rat fetuses at the 18th day of pregnancy were taken out from Wistar rats (available from Japan SLC), and cerebral cortices of the fetuses were taken out and cut into small pieces. After having been treated with papain (manufactured by Worthington Biochemical) at 37° C. for 30 minutes, the pieces were suspended into a Dulbecco modified Eagle's medium containing 5% bovine neonatal serum and 5% equine serum and the cortices were dissociated into single cells with Cell Striner (70 μm, Falcon). Then, the cells were inoculated into a flexiperm plate coated with 0.5% polyethyleneimine (1.0×10^6 cells/500 μl/well), and was cultured in 7% CO2 incubator at 37° C. The medium was exchanged on 2nd, 5th, and 8th days after the culture had been started. The activity of the compound of the present invention was measured using the primary culture. The compound was added at the time when the medium was exchanged and the concentration of the compound was maintained to be 20 μM. Assay was carried out on 10th day after the culture had been started.
(2) Measurement of Activity of Accelerating Synapse Formation
Concretely, after the medium of each well where cells were cultured was substituted with basic salt solution (BSS), 3 μl of a DMSO solution (1 mg/ml) of a calcium ion fluorescence indicator fura-2 was added, and the whole was kept at 37° C. for 1 hour.

For data set [2], the system named is enzyme for ganglioside GM3 synthesis, mouse B16 melanoma cell. In words: Activity of enzyme for ganglioside GM3 synthesis (14C-Gal incorporated in total lipid fraction). The class given is cell-based. As to conditions: relative value, control regarded as 100; test compound 24 μM, 24 hours; 14C-Gal incorporation. As to the method:
The gangliosides produced by mouse B16 melanoma cell are almost composed of ganglioside GM3. Therefore, the activity of the enzyme for ganglioside GM3 synthesis can be determined conveniently by measuring the amount of ^14C-Gal incorporated in a total lipid-extracted fraction through a liquid layer partition method.
A liquid where the cells of mouse B16 melanoma were suspended was prepared with Dulbecco modified Eagle's medium containing 10% bovine fetal serum, inoculated into a 12-well plate in an amount of 2.0×10^5 cells/ml/well, and cultured in 5% CO2 incubator at 37° C. The treatment with a test compound (24 μM) and the addition of ^14C-Gal (22.2 kBq/11.7 nmol/6 μl/well) were started through the exchange of total amount of the medium 24 hours after the culture was started. Twenty-four hours after the treatment with the test compound was started, the culture mixture was treated with PBS containing 0.02% EDTA and PBS containing 0.25% trypsin successively to recover the cells.
Then, a mixed solvent of chloroform:methanol=2:1 (3 ml) was added to the cell pellet and, after the subjection to an ultrasonication for 30 minutes, the supernatant was recovered. Furthermore, a mixed solvent of chloroform:methanol=1:1 (3 ml) was added to the residual pellet after the recovery of the supernatant, and a similar operation was carried out. The resulting supernatant was combined with the first supernatant and the whole was evaporated to dryness under a nitrogen stream. A desalinated water (1.0 ml) was added to the total lipid-extracted fraction. After having been subjected to an ultrasonication for 1 minute, the mixture was transferred into a dialysis tube and dialyzed against water for 2 days. The sample after the dialysis was transferred into a vial for liquid scintillation counter and, after the addition of scintillator, the activity of incorporating ^14C-Gal was measured on scintillation counter.
The values of activity of the compounds of the present invention are shown as relative values obtained by calculation on the basis that the value of a control (a group where no test compound was added) is regarded as 100 in Table 3 below.

The nature of data set [3]: Tissue distribution: concentration in plasma and skeletal muscle after oral or intravenous administration. As to conditions: male, Wistar, plasma, rat. Type of data set: in vivo. How it is done: Tissue distribution of the compound in Example 19 was compared with that of L-PDMP using 6-8 week old Wistar male rats.
As oral administration, a physiological saline containing 20 mg/ml of a test substance was administered at 100 mg/5 ml/kg, and as intravenous administration, a physiological saline containing 1.25 mg/ml of a test substance was administered to the cervical vein at 5 mg/4 ml/kg.
After the predetermined time had passed since the above administration, blood was collected from the rat cervical vein, a 3.8% sodium citrate solution was added thereto at 1/10 volume, followed by centrifugation at 3,000 rpm for 15 minutes to obtain the supernatant as a plasma sample.
Also, after the predetermined time had passed since the above administration, the skeletal muscle was collected from the femoral region of both hind legs, ice water was added thereto at 4 ml/g tissue, followed by homogenization, and the same volume of acetonitrile was added thereto, followed by vigorously stirring and centrifugation at 4000 rpm for 10 minutes to obtain the supernatant as a skeletal muscle sample.
The plasma and skeletal muscle samples were extracted by OASIS HLB solid phase extraction column (manufactured by Waters), and the concentration of the test compound in the plasma and the muscle was determined by high performance liquid chromatography (HPLC). The conditions of HPLC analysis were as follows:
Detection wavelength: 218 nm
Column: DAISO PACK SP-120-5-ODS-BP
Column temperature: 40° C.
Mobile phase: 0.1% trifluoroacetic acid solution:methanol=36:64 (for L-PDMP); 0.1% trifluoroacetic acid solution:methanol=48:52 (for the compound in Example 19)
The concentrations in the plasma and skeletal muscle of the compound in Example 19 and L-PDMP after the predetermined time has been passed since the administration of the test compounds are shown in Tables 4-6 below. The values are the mean values of at least two test samples. Specifically, Table 4, Table 5, and Table 6 show the concentrations in the plasma after the oral administration of 100 mg/kg, the concentrations in the skeletal muscle after the oral administration of 100 mg/kg, and the concentrations in the plasma after the intravenous administration of 5 mg/kg, respectively.

The subject of data set [4] is neurite. As to conditions: literature; cited from earlier work.
For data set [5], the system named is neurocytes. As to conditions: J. Neurochem. 67: 1821-1830, 1996; cited from earlier work.
Data set [6] deals with synapse formation. To be noted: WO 95/05177; cited from earlier work.
In data set [7] the test system is MAPkinase (mitogen-activated protein kinase). To be noted: Biochem. Biophys. Res. Commun. 237: 595-600 (1997); cited from earlier work.
The test system of data set [8] is enzyme for GQ1b synthesis. To be noted: Biochem. Biophys. Res. Commun. 237: 595-600 (1997); cited from earlier work.

As to `CCCCCCCCCC(=O)N[C@@H](CN1CCOCC1)[C@@H](O)c1ccccc1` [L-PDMP, (1S,2S)-1-phenyl-2-decanoylamino-3-morpholino-1-propanol, reference compound], the “Activity of synapse formation” value in data set [1] amounted to 100.0. The “Activity of accelerating glycolipid biosynthesis (Test Example 2)” value in data set [2] was 95.2. In data set [3] (intravenous administration of 5 mg/kg, 10 min), this compound showed a concentration at 10 min of 1030 ng/mL. This compound also came in with a concentration at 25 min in data set [3] (intravenous administration of 5 mg/kg, 25 min) of 620 ng/mL. Besides, the concentration at 5 min in data set [3] (oral administration of 100 mg/kg, 5 min) worked out at 10 ng/mL. This compound also gave a concentration at 15 min in data set [3] (oral administration of 100 mg/kg, 15 min) of 1360 ng/mL. The concentration at 30 min in data set [3] (oral administration of 100 mg/kg, 30 min) turned out to be 2100 ng/mL. Besides, the concentration at 60 min in data set [3] (oral administration of 100 mg/kg, 60 min) stood at 1440 ng/mL. In data set [4], the “effect on neurite extension” value is “effect of accelerating neurite extension”. Moreover, the “effect on ganglioside biosynthesis of neurocytes” value in data set [5] is on record as “accelerate ganglioside biosynthesis of neurocytes”. For the same compound, in data set [6], the “effect on synapse formation” value is “effect of accelerating synapse formation”. Further, the “effect on MAPkinase” value in data set [7] was “activates MAPkinase for a long period of time”. Moreover, in data set [8], the “effect on activity of enzyme for GQ1b synthesis” value is “increases the activity of an enzyme for GQ1b synthesis”.
